Reference: US10941136B2, “Quinazoline derivative or its salt and pharmaceutical composition comprising the same” (YUHAN CORPORATION, priority 2016, dated 2021)

Legend:
Type in all cases: biochemical
PI3Kδ (p110δ/p85α)(h) = molecular target: T1, PI3Kδ (p110δ/p85α)(h) (Homo sapiens, UniProt O00329); test: PI3K-HTRF in vitro enzyme assay, PI3Kδ; conditions: enzyme 0.1 μg/ml
T1 construct: purchased Upstate (Millipore Co, Billerica, Mass., USA) #14˜604
Method: (§1) The compounds of the present invention were tested for the activity of phosphatidylinositol 3-kinase delta (PI3K) by using a PI3K enzyme-homogeneous time resolved fluorescence (PI3K-HTRF) kit, which is available under Upstate™ kit (Millipore Co, Billerica, Mass., USA). This kit system measures indirectly the amount of PIP3 produced via PI3K by detecting competitive inhibition of fluorescence complex formation.
(§2) There were used three kinds of buffer solutions, i.e., reaction buffer, stop solution, and detection solution. The reaction buffer was prepared by diluting Reaction Buffer (provided in Update™ kit) with distilled water 4 times and adding DTT to a concentration of 5 mM. The stop solution was prepared by combining STOP A and B Solutions (provided in Update™ kit) in a ratio of 3:1. The detection solution was prepared by combining Detection Solution A, B and C (provided in Update™ kit) in a ratio of 1:1:18. A substrate solution and an ATP solution were prepared by diluting the 1 mM PIP2 (phosphatidyl inositol 4,5 bi-phosphate) stock solution (provided in Update™ kit) and 10 mM ATP (Sigma-aldrich Co., St. Louis, Mo., USA) stock solution with the reaction buffer to concentrations of 20 μM and 40 μM, respectively. An enzyme solution was prepared by diluting PI3Kδ (#14˜604; Upstate™ kit) with the substrate solution to the concentration of 0.2 μg/ml (final reaction concentration: 0.1 μg/ml).
(§3) The test groups were prepared by dissolving each compound in 100% DMSO at 40× the final concentration and then diluting 10-fold with the reaction buffer. 5 μl of each diluted test group solution was transferred to a 384 well low flange white flat bottom microplate (#3572, Corning Life Sciences, Lowell, Mass., USA). We performed centrifuge (1 minute, 1000 rpm) and shaking for 2 minutes after every solution-adding step in this experiment. Next, 10 μl of the enzyme solution was added to each well. A mixed solution of the substrate solution (10 μl) plus 5 μl of the 100% DMSO diluted solution without test compound (i.e., 10% DMSO solution) was used as a negative control. And also, a mixed solution of enzyme solution (10 μl) plus 5 μl of the 100% DMSO diluted solution without test compound (i.e., 10% DMSO solution) was used as a positive control. This plate was pre-incubated for 10 minutes in a 25° C. incubator. After the pre-incubation, the phosphorylation reaction was induced by adding 5 μl of the ATP solution and the plate was incubated for 30 minutes in a 25° C. incubator. This enzyme reaction was stopped by 5 μl of the stop solution and then 5 μl of the detection solution was added thereto. To obtain enough fluorescence responses, the plate was incubated for 2 hours in a 25° C. incubator protected from light.
(§4) The time-resolved fluorescence resonance energy transfer (TR-FRET) rate was measured (emission wavelength: 665 nm, 620 nm, excitation wavelength: 313 nm) by using a Flexstation3 Micro plate reader (Molecular Devices, USA). TR-FRET Rate was calculated based on the Equation 1 and using these TR-FRET Rates, % inhibition rate of each compound was calculated based on the Equation 2. The IC50 values, i.e., the concentration of a test compound that inhibits 50% of PI3Kδ activity in vitro, are generated by Softmax program (Molecular Devices, USA). TR-FRET Rate=(Signal at 665 nm emission wavelength/Signal at 620 nm emission wavelength)×10000 <Equation 1> % Inhibition Rate=[(TR-FRET Rate of the test group−TR-FRET Rate of the positive control group)/(TR-FRET Rate of the negative control group−TR-FRET Rate of the positive control group)]×100 <Equation 2>

PI3Kα (p110α/p85α)(h) = molecular target: T2, PI3Kα (p110α/p85α)(h) (Homo sapiens, UniProt P42336); test: PI3K-HTRF in vitro enzyme assay, PI3Kα; conditions: enzyme 0.1 μg/ml
T2 construct: purchased Upstate (Millipore Co) #14-602
T2 sequence (P42336 whole entry): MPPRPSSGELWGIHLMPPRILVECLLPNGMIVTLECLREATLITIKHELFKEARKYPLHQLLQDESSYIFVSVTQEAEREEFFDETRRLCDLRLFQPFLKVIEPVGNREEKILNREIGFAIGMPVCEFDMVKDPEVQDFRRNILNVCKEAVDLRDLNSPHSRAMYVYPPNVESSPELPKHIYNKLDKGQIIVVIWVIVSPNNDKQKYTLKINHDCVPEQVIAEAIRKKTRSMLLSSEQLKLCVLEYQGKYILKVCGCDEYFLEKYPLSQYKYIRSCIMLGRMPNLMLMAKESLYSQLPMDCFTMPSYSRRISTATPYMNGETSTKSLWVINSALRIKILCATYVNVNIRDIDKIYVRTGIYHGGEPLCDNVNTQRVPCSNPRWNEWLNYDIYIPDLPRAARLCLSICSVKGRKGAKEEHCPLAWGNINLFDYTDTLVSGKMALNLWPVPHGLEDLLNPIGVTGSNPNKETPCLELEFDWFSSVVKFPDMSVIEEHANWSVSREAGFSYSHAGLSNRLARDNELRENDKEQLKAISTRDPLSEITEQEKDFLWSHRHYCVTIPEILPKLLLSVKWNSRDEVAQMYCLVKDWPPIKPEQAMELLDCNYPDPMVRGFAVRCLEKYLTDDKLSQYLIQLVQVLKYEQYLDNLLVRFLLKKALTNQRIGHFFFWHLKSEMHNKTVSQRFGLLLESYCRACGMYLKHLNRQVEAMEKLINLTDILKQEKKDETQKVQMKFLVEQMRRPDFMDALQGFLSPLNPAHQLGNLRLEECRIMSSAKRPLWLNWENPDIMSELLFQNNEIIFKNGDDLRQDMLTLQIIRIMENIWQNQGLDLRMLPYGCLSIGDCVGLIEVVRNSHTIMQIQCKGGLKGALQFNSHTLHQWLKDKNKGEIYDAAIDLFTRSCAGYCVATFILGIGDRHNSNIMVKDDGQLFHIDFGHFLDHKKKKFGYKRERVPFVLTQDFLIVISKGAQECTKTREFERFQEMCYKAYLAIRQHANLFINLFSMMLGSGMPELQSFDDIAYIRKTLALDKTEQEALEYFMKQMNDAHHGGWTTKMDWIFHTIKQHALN
T2 sequence (P27986 whole entry partner): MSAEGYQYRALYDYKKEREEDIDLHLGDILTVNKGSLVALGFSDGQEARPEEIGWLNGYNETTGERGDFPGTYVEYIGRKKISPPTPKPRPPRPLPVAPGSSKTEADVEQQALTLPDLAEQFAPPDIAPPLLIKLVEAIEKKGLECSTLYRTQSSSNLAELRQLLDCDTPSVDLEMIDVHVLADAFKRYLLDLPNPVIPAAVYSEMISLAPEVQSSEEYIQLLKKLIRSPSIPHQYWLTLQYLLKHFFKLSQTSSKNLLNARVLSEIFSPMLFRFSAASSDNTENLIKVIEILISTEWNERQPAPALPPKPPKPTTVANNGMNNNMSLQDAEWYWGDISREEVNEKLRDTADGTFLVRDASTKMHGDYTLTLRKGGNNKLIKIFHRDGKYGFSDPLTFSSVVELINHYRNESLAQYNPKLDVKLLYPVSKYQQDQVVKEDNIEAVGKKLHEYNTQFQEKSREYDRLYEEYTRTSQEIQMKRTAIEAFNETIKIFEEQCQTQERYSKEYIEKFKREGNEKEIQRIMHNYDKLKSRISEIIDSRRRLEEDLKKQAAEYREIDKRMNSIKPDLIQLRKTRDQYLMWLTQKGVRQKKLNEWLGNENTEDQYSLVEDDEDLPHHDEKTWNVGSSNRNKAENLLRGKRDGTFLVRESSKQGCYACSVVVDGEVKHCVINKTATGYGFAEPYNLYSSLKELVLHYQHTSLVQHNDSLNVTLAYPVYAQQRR
Method: as §1, §2, §3, §4
(§5) The compounds of the present invention were assayed for the activities of PI3K subtypes, i.e., PI3Kα, PI3Kβ and PI3Kγ, using the same procedures as in Experimental Example 1. […]

PI3Kβ (p110β/p85α)(h) = molecular target: T3, PI3Kβ (p110β/p85α)(h) (Homo sapiens, UniProt P42338); test: PI3K-HTRF in vitro enzyme assay, PI3Kβ; conditions: enzyme 0.4 μg/ml
T3 construct: purchased Upstate (Millipore Co) #14-603
T3 sequence (P42338 whole entry): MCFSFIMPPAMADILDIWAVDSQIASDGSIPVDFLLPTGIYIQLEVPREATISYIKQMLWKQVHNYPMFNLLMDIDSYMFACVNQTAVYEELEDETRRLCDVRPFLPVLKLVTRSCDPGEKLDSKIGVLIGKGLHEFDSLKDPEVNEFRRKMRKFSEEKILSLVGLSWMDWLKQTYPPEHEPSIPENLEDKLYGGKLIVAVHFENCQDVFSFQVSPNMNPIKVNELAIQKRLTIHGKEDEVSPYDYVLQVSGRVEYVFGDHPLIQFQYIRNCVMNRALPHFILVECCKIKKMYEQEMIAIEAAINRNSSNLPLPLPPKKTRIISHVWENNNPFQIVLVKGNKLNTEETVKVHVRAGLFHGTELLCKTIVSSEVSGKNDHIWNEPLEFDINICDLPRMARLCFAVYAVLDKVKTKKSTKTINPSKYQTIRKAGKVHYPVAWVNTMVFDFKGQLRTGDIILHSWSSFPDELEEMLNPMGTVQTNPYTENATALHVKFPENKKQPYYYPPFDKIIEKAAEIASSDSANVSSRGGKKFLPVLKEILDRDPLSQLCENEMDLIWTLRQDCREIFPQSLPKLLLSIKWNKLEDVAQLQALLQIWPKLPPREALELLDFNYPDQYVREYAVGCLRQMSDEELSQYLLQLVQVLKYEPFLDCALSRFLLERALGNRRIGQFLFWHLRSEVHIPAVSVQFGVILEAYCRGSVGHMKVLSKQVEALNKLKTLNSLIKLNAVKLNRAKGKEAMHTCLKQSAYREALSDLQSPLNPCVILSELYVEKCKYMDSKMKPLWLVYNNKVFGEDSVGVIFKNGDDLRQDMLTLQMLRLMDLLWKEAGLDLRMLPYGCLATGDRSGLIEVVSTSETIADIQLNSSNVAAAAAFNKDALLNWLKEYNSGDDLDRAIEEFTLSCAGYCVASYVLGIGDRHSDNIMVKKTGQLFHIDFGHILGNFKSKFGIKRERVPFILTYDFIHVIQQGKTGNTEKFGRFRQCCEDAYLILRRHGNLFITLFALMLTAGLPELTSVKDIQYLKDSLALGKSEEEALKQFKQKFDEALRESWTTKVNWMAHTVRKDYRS
T3 sequence (P27986 whole entry partner): as the sequence (P27986 whole entry partner) above
Method: as §1, §2, §3, §4, §5

PI3Kγ (p120γ)(h) = molecular target: T4, PI3Kγ (p120γ)(h) (Homo sapiens, UniProt P48736); test: PI3K-HTRF in vitro enzyme assay, PI3Kγ; conditions: enzyme 0.4 μg/ml
T4 construct: purchased Upstate (Millipore Co) #14-558
T4 sequence (P48736 whole entry): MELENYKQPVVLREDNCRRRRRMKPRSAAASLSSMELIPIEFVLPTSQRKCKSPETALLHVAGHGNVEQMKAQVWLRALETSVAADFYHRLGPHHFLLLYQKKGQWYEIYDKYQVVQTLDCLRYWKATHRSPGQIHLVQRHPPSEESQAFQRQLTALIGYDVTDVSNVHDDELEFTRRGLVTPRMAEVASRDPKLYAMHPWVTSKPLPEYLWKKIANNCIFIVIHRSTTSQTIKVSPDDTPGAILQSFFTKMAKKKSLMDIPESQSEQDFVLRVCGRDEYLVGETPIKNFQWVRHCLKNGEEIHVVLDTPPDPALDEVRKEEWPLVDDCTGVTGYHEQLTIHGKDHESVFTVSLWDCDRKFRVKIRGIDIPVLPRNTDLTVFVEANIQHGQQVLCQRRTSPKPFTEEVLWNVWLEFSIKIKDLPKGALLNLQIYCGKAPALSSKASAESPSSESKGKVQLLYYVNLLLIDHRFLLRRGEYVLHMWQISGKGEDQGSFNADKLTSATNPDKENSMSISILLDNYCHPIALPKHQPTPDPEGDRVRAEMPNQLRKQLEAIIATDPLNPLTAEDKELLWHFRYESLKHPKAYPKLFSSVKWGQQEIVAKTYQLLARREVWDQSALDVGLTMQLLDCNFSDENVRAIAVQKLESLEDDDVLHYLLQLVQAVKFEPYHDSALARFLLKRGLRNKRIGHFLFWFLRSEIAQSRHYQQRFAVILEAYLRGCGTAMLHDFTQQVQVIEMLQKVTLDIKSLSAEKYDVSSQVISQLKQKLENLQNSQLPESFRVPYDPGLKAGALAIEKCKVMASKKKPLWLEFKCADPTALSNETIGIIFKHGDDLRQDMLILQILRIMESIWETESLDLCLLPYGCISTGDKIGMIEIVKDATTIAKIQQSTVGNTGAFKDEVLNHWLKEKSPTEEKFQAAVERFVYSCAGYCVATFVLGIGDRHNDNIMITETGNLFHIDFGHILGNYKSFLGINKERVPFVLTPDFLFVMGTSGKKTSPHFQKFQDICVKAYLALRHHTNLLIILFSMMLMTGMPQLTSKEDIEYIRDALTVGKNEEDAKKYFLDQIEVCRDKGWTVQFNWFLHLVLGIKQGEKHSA
Method: as §1, §2, §3, §4, §5

T1 sequence (O00329 whole entry): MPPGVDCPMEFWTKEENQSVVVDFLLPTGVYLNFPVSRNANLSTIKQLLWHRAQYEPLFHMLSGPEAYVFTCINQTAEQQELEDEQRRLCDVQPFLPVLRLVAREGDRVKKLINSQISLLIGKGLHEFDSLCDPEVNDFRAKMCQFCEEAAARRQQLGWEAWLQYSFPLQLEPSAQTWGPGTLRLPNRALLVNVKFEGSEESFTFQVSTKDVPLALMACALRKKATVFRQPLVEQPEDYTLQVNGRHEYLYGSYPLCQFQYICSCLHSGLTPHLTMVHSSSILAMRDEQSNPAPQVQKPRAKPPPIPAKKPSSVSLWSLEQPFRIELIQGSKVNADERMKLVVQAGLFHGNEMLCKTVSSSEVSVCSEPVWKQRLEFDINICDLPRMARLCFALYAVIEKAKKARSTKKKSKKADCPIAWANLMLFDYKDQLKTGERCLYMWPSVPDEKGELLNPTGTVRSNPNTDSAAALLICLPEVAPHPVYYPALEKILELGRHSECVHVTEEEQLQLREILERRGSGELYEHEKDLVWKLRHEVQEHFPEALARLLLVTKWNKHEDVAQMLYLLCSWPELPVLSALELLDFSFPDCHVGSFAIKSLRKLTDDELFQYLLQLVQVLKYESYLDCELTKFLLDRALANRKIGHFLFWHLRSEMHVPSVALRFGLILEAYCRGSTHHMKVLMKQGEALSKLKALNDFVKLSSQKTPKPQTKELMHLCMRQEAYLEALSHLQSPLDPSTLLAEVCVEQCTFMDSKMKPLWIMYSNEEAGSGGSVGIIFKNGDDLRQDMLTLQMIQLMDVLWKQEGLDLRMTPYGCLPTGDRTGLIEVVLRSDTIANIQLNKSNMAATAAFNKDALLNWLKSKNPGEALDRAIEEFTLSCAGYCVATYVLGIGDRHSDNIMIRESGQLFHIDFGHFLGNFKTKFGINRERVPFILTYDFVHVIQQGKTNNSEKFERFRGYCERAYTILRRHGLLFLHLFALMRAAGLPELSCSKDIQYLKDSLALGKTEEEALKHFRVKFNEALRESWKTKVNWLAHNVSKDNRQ
T1 sequence (P27986 whole entry partner): as the sequence (P27986 whole entry partner) above

SMILES | IC50 (PI3Kδ (p110δ/p85α)(h)) | IC50 (PI3Kα (p110α/p85α)(h)) | IC50 (PI3Kβ (p110β/p85α)(h)) | IC50 (PI3Kγ (p120γ)(h))
CCC[C@H](Nc1ncnc2ccc(C#N)cc12)c1nc2cccc(-c3cnc(N)nc3)c2c(=O)n1-c1ccccc1 [Example 12, (S)-4-((1-(5-(2-aminopyrimidin-5-yl)-4-oxo-3-phenyl-3,4-dihydroquinazolin-2-yl)butyl)amino)quinazoline-6-carbonitrile] | 6 nM | 621 nM | 3060 nM | 108 nM
CC[C@H](Nc1ncnc2ccc(C#N)cc12)c1nc2cccc(-c3cncnc3)c2c(=O)n1C1CC1 [Example 20, (S)-4-((1-(3-cyclopropyl-4-oxo-5-(pyrimidin-5-yl)-3,4-dihydroquinazolin-2-yl)propyl)amino)quinazoline-6-carbonitrile] | 15 nM | 2440 nM | 8950 nM | 819 nM
CC[C@H](Nc1ncnc2cccc(F)c12)c1nc2cccc(-c3cnc(N)nc3)c2c(=O)n1-c1ccccc1 [Example 25, (S)-5-(2-aminopyrimidin-5-yl)-2-(1-((5-fluoroquinazolin-4-yl)amino)propyl)-3-phenylquinazolin-4(3H)-one] | 10 nM | 1460 nM | 9590 nM | 1230 nM
Nc1ncc(-c2cccc3nc([C@@H](Nc4ncnc5cccc(F)c45)C4CC4)n(-c4ccccc4)c(=O)c23)cn1 [Example 31, (S)-5-(2-aminopyrimidin-5-yl)-2-(cyclopropyl((5-fluoroquinazolin-4-yl)amino)methyl)-3-phenylquinazolin-4(3H)-one] | 3 nM | 652 nM | 9310 nM | 442 nM
C[C@H](Nc1ncnc2ccc(C#N)cc12)c1cc2cccc(-c3cncnc3)c2c(=O)n1-c1ccccc1 [Example 32, (S)-4-((1-(1-oxo-2-phenyl-8-(pyrimidin-5-yl)-1,2-dihydroisoquinolin-3-yl)ethyl)amino)quinazoline-6-carbonitrile] | 2 nM | 1730 nM | 4800 nM | 416 nM
COc1ncc(-c2cccc3cc([C@H](C)Nc4ncnc5ccc(C#N)cc45)n(-c4ccccc4)c(=O)c23)cn1 [Example 33, (S)-4-((1-(8-(2-methoxypyrimidin-5-yl)-1-oxo-2-phenyl-1,2-dihydroisoquinolin-3-yl)ethyl)amino)quinazoline-6-carbonitrile] | 10 nM | 1240 nM | 6690 nM | 155 nM

The remaining lines, values ahead:

IC50 (PI3Kδ (p110δ/p85α)(h)) | IC50 (PI3Kα (p110α/p85α)(h)) | IC50 (PI3Kβ (p110β/p85α)(h)) | IC50 (PI3Kγ (p120γ)(h)) | SMILES
10 nM | 2640 nM | 3820 nM | 947 nM | C[C@H](Nc1ncnc2ccc(C#N)cc12)c1nc2cccc(-c3cncnc3)c2c(=O)n1C1CC1 [Example 17, (S)-4-((1-(3-cyclopropyl-4-oxo-5-(pyrimidin-5-yl)-3,4-dihydroquinazolin-2-yl)ethyl)amino)quinazoline-6-carbonitrile]
19 nM | 2710 nM | 5790 nM | 771 nM | COc1ncc(-c2cccc3nc([C@H](C)Nc4ncnc5ccc(C#N)cc45)n(C4CC4)c(=O)c23)cn1 [Example 18, (S)-4-((1-(3-cyclopropyl-5-(2-methoxypyrimidin-5-yl)-4-oxo-3,4-dihydroquinazolin-2-yl)ethyl)amino)quinazoline-6-carbonitrile]
21 nM | 2020 nM | 6730 nM | 593 nM | CCOc1ncc(-c2cccc3nc([C@H](C)Nc4ncnc5ccc(C#N)cc45)n(C4CC4)c(=O)c23)cn1 [Example 19, (S)-4-((1-(3-cyclopropyl-5-(2-ethoxypyrimidin-5-yl)-4-oxo-3,4-dihydroquinazolin-2-yl)ethyl)amino)quinazoline-6-carbonitrile]
13 nM | 650 nM | 3730 nM | 371 nM | CC[C@H](Nc1ncnc2ccc(C#N)cc12)c1nc2cccc(-c3cnc(N)nc3)c2c(=O)n1C1CC1 [Example 21, (S)-4-((1-(5-(2-aminopyrimidin-5-yl)-3-cyclopropyl-4-oxo-3,4-dihydroquinazolin-2-yl)propyl)amino)quinazoline-6-carbonitrile]
